The source of these data is patent US20210145830A1, “MATERIALS AND METHODS FOR TREATING CANCER” (Mayo Foundation for Medical Education and Research, priority 2018, published 2021).

In assay [1] the test system is CART19. In words: CART19 proliferation assay in the presence of TP0903. Format: cell-based. As to conditions: 5 days. On the procedure:
FIG. 2 contains an exemplary timeline for a CART19 proliferation assay in the presence of TP0903. UTDs or CART19 were incubated with Jeko in the presence of TP0903 in 1:1 ratio. At day 5, total T cell numbers were evaluated with CountBright quantification.
T cells were washed and re-suspended at 1×10^7/mL in 100 μL of phosphate-buffered saline and labeled with 100 μL of carboxyfluorescein succinimidyl ester (CFSE) 2.5 μM (Life Technologies) for 5 minutes at 37° C. The reaction was then quenched with cold R10, and the cells were washed three times. Targets were irradiated at a dose of 100 Gy. T cells were incubated at a 1:1 ratio with irradiated target cells for 120 hours. Cells were then harvested, stained for CD3, CAR and Live Dead aqua (Invitrogen), and Countbright beads (Invitrogen) were added prior to flow cytometric analysis.
UTDs or CART19 were incubated with Jeko cell line or primary CLL cells in the presence of TP0903, at 1:1 ratio for 5 days. At the end of the experiment, cells were harvested and stained for CD3, live dead staining was performed, and counti bright beads were added prior to flow cytometric analyses (FIG. 2). Absolute T cell numbers were calculated based on this. […] Low doses of TP0903 (10 nM) increased the number of CART19 cells. A high dose of TP0903 (>100 nM) decreased the number of CART19.

Assay [2] deals with Naïve T cells. In words: Naïve T cell proliferation assay (PMA/Ionomycin). As to conditions: PMA 5 ng/ml + Ionomycin 0.1 μg/ml; TP0903 10-65 nM; 3 days. It counts as cell-based. On the procedure: FIG. 21A-E. TP0903 modulates naïve T cells function upon stimulation of PMA/Ionomycin in vitro. A. Naïve T cell proliferation assay in the presence of TP0903. Naïve T cells were stimulated with 5 ng/ml of PMA and 0.1 μg/ml of Ionomycin in the absence or in the increasing dose of TP0903 (10-65 nM) for 3 days. […] B. At the end of the expansion on day 3, T cells were stained with inhibitory receptors. […] C. Naïve T cell degranulation assay and cytokine production in the presence of TP0903. Naïve T cells were stimulated with 50 ng/ml of PMA and 1 μg/ml of Ionomycin for 4 hours in the presence of increasing doses of TP0903 (10-65 nM). […] D. Western blot analysis of p-LCK and GATA-3 inhibition by TP0903 in naïve T cells. Naïve T cells were stimulated with 5 ng/ml of PMA and 0.1 ug/ml of Ionomycin in the absence (DMSO) or in the increasing dose of TP0903 (10-65 nM) for 24 hours. […] was used as loading control. E. TP0903 specifically reduces regulatory T cells (Treg). Effector T cells (Teff) were isolated by negative selection using RoboSep™ Human T Cell Isolation Kit (Stemcell Technologies). Tregs were isolated by negative selection using the human CD4^+CD127^lowCD25^+ Treg isolation kit (Stemcell Technologies). Teff and Treg were stimulated with anti-CD3/CD28 beads and 400 U/ml of IL-2. At day 5, total T cells were evaluated via CountBright quantification.

Assay [3] deals with JeKo. Description: MCL (JeKo) xenograft in NSG mice with re-challenge. Format: in vivo. On the procedure: FIGS. 19A-F. A. Inhibitory receptors expression in naïve T cells after TCR activation with CD3 stimulation in the increasing dose of TP0903. Naïve T cells were incubated with anti CD3/CD28 beads at a 1 to 3 ratio in the presence of TP0903. At day 3, T cells were stained with PD-1, TIM-3, LAG-3, and ICOS. […] Teff cells were isolated by negative selection using Human T Cell Isolation Kit. Tregs were isolated by negative selection using the human CD4^+CD127^lowCD25^+ Treg isolation kit. Teff and Treg were stimulated with anti CD3/CD28 beads and 400 U/ml of IL-2. At day 5, total T cells were evaluated via CountBright quantification. C. CART19 cytokine assay in the presence TP0903. UTDs or CART19 were incubated with Jeko in the presence of TP-0903 at a 1 to 1 ratio. Supernatant was harvested and analyzed by 32-plex Luminex array after 3 days. D. Inhibitory receptors expression in CART19 cells in the presence TP0903. UTDs or CART19 were incubated with Jeko at a 1 to 1 E/T ratio in the presence of TP0903. At day 5, T cells were stained with PD-1 (left), LAG-3 (right), and TIM-3. E. CART19 cytotoxicity in the presence TP0903: CART19 or UTDs were co-cultured at different effector-to-target ratios (E:T) with luciferase-positive Jeko in the presence of increasing doses of TP0903. Cell killing was assessed by luminescence at 24 hours. F. TP0903 enhanced CART cell persistence in vivo. NSG mice were injected with 1.0×10^6 luciferase-positive JeKo on day −7. At day 0, mice were randomized according to tumor burden to receive vehicle, TP0903 20 mg/kg/day, […] CART19, or TP0903 20 mg/kg/day+0.5×10^6 CART19. At day 21, mice were re-challenged with JeKo.
FIG. 25A-E. Impact of the combinatory therapy in vivo. A. Schema for in vivo experiment. B and C. […] D. Reduction of MCP-1, which is known as CRS related cytokine in the presence of TP0903. E. Expansion of circulating CART19 after re-challenging Luciferase positive JeKo-1.
NOD-SCID-γ chain−/− (NSG) originally obtained from Jackson Laboratories were maintained in our laboratory under an IACUC approved breeding protocol. Schemas of the utilized xenograft models are discussed in detail in the relevant figures and the Results section. Cells were injected in 200 μL of phosphate-buffered saline at the indicated concentration into the tail veins of mice. Bioluminescent imaging was performed using a Xenogen IVIS-200 Spectrum camera. Images were acquired and analyzed using Living Image version 4.4 (Caliper LifeSciences, Inc., PerkinElmer).
To investigate the effect of AXL RTK inhibition of CART cells with TP0903 in vivo, MCL xenografts were established through the injection of 1.0×10^6 of JeKo into NSG mice. A week after the injection of JeKo, mice were treated with either vehicle alone, TP0903 (20 mg/kg/day) alone, 0.5×10^6 of CART19 alone, or TP0903 (20 mg/kg/day)+0.5×10^6 of CART19. Three weeks after the treatment, mice were rechallenged with 1.0×10^6 of JeKo.

Molecules are shown by their SMILES. Entries after “also recorded” stand apart in the source; their conditions may differ.

Regarding `CN1CCN(Cc2ccc(Nc3ncc(Cl)c(Nc4ccccc4S(=O)(=O)N(C)C)n3)cc2)CC1` [TP0903], the “CART cell specific proliferation” value in assay [1] (1:1 with Jeko or primary CLL cells) is listed as “did not impair; also recorded: does not inhibit”. The “number of CART19 cells” value was “decreased” in assay [1] (high dose of TP0903 (>100 nM)) and “increased” in assay [1] (low doses of TP0903 (10 nM)). The T cell expansion entry in assay [2] is reported as “did not interfere”. Also, the “outcome of JeKo re-challenge” value in assay [3] (TP0903 20 mg/kg/day + 0.5×10^6 CART19, re-challenge at three weeks) is “successfully rejected”. In assay [3] (TP0903 20 mg/kg/day + CART19), the “CART cell persistence in vivo” value was “enhanced”. Further, the tumor burden entry in assay [3] (combination of CART19 and TP0903 vs CART19 monotherapy) is on record as “superior low tumor burden”. In addition, in assay [3] (combination, after re-challenging Luciferase positive JeKo-1), the “circulating CART19” value was “Expansion”. Besides, in assay [3] (in vivo, in the presence of TP0903), the “MCP-1 (CRS related cytokine)” value was “Reduction”.
